Measured values from patent US20170066795A1, “SOLID PRODRUG FORMS OF 2'-CHLORO-2'-METHYL URIDINE FOR HCV” (IDENIX PHARMACEUTICALS LLC, priority 2014, published 2017).
≈ marks a conversion by molar mass, not a printed value. Entries after “also recorded” stand apart in the source; their conditions may differ.

Legend:
Assay type in all cases: physicochemical
[1] = Static stability of amorphous Compound I (ambient conditions; 40° C./75% RH)
Protocol: Full characterization was carried out on a 100 mg scale test batch (lyophilised from 100% t-butanol).

[2] = Kinetic solubility of amorphous Compound I; conditions: kinetic from dmso stock; stated in embodiment text only
[3] = Solubility screen with crystalline material (Form I)
Protocol: An extensive range of experiments were carried out using either Compound I crystalline Form I or amorphous Compound I as the input material. A set of 32 solvents with diverse properties (including 3 solvent:water mixtures 95:5 v:v) were selected. All solvents were used for the solubility screen but for the subsequent screens a selection of these solvents were used depending on the solubility.
Compound I Form I was weighed into 2 mL vials and treated with increasing amounts of solvent. Solvent was added in 10 or 20 volume portions until the solid dissolved or a maximum volume of 2 mL (80 volumes) had been reached. After each addition of solvent the samples were warmed to 50° C. […] After 3 days of maturation samples were equilibrated to room temperature and small amounts of each sample were filtered through glass frits under vacuum and were analyzed by XRPD. […]
Solutions were stirred at 50° C. for 1 hour then were cooled to 5° C. using a linear cooling rate of 0.1° C./min. […] Observations were made and any solids were analyzed by XRPD as above and solutions were cooled in the freezer for 3 days. Solids were then analyzed by XRPD and samples that remained solutions were left to evaporate slowly through loosened lids at ambient conditions. When solids were produced they were analyzed by XRPD.

Row | Compound | Static Stability at 40° C./75% RH: time to deliquesce to an oil/gum ([1]; 40° C./75% RH) | Static Stability at 40° C./75% RH: solid form ([1]; 40° C./75% RH, 1, 15 and 44 days) | Static Stability at ambient conditions ([1]; solid form on storage, lyophilised batch) | solubility kinetic [2] [µg/mL] | solubility in most primary alcohols [3]
1 | CC(C)OC(=O)[C@@H](C)N[P@@](=O)(OC[C@H]1O[C@@H](n2ccc(=O)[nH]c2=O)[C@](C)(Cl)[C@@H]1O)Oc1ccccc1 [Amorphous Compound I] | Deliquesces to an oil/gum in <1 hour, | remains amorphous after 1 day,; also recorded: after 15 days amorphous but hint of a peak at 6.5 °20; also recorded: after 44 days remains amorphous except for peak at 6.5 °20 | Remains amorphous after 22 days | ~2000 (≈ 3.66 mM) | –
2 | CC(C)OC(=O)[C@@H](C)N[P@@](=O)(OC[C@H]1O[C@@H](n2ccc(=O)[nH]c2=O)[C@](C)(Cl)[C@@H]1O)Oc1ccccc1 [Compound I crystalline Form I] | – | – | – | – | highly soluble
